Assay [1] relates to canine small bowel transit. The settings on record: infusion of CH4, canine; cited from earlier work.
Assay [2] relates to subjects with IBS-C and IMO. Kind of assay: EASE-DO randomized double-blind placebo-controlled trial (NCT03763175). Format: in vivo, human. The settings on record: 14-week trial, adult patients with IBS-C and IMO, single daily oral doses vs placebo. An excerpt:
To evaluate the accuracy and temporal stability of SMM, and to assess its correlation with stool M. smithii loads, we analyzed data from a randomized double-blind placebo-controlled trial: Efficacy and Safety of Single, Daily Oral Doses of SYN-010 Compared to Placebo in Adult Patients with IBS-C (EASE-DO, NCT03763175).
Trial details: Efficacy and Safety of Single, Daily Oral Doses of SYN-010 Compared to Placebo in Adult Patients with IBS-C (EASE-DO, NCT03763175) was a 14-week single-center randomized double-blind placebo-controlled trial evaluating the effects of lovastatin lactone on subjects with IBS-C and IMO. Subjects were excluded if they were on statins, fibrates, niacin, narcotics, laxatives, tegaserod, lubiprostone, linaclotide, metoclopramide, prucalopride, domperidone, plecanatide, CandiBactin, Atrantil, Allimax/Allimed, antibiotics within 2 months and opioids within 3 months prior to the study. If subjects were on probiotics or fiber supplements, they were asked to not change their dose. […] All subjects enrolled in this study completed a 2-hour breath test at their initial visit and their weekly complete spontaneous bowel movement (CSBM) and spontaneous bowel movement (SBM) were recorded. After recording their baseline CSBM and SBM for 2 weeks, subjects returned to the lab and their SMM and stool samples were collected (FIG. 1). […]

SMILES strings stand for the structures.

In the case of `C` [CH4, methane], in assay [1], the “effect on small bowel transit” value is on record as “slows canine small bowel transit”.

Take `CC[C@H](C)C(=O)O[C@H]1C[C@@H](C)C=C2C=C[C@H](C)[C@H](CC[C@@H]3C[C@@H](O)CC(=O)O3)[C@H]21` [SYN-010, lovastatin lactone]: the “primary endpoint, interim futility analysis” value in assay [2] was “not meeting the primary endpoint”.

The values above are taken from patent US20240389885A1, “DAILY FASTING METHANE TO DETECT INTESTINAL METHANOGEN OVERGROWTH AND MONITOR TREATMENT RESPONSE” (Cedars-Sinai Medical Center, priority 2021, published 2024).
